In patent US20080090734A1, “DRUG SCREENING AND TARGET IDENTIFICATION USING SPR IMAGING OF TARGET PROTEIN ARRAYS” (The Trustees of California State University, priority 2006, published 2008):

Assays:
Assay in all cases: Antibiotic susceptibility profile
Assay type in all cases: cell-based, Acinetobacter baumannii
Parameters in all cases: key: Resistance; Intermediate; Susceptible
[1] = system: A. baumannii clinical isolate LAC 11
Excerpt: (§1) We obtained over thirty clinical isolates of A. baumannii from nosocomial infections in New York City and Los Angeles. […] Only antibiotics with breakpoints for A. baumannii were used. […] Isolates LA 01 to 20 were acquired from Los Angels County while NY-A to NY-H were obtained from New York City.
(§2) Antibiotic susceptibility profiles of clinical isolates of A. baumannii and reference strains. R, I, and S denote Resistance, Intermediate and Susceptible, respectively. Genetic Profiling of Clinical Isolates of A. baumannii

[2] = system: A. baumannii clinical isolate NY G
Excerpt: as §1, §2

[3] = system: A. baumannii clinical isolate LAC 19
Excerpt: as §1, §2

[4] = system: A. baumannii reference strain 15839; conditions: strain 15839 (ATCC)
Excerpt: as §1, §2

[5] = system: A. baumannii reference strain 19606; conditions: strain 19606 (ATCC)
Excerpt: as §1, §2

[6] = system: A. baumannii clinical isolate LAC 01
Excerpt: as §1, §2

[7] = system: A. baumannii clinical isolate NY E
Excerpt: as §1, §2

[8] = system: A. baumannii clinical isolate LAC 10
Excerpt: as §1, §2

[9] = system: A. baumannii clinical isolate NY A
Excerpt: as §1, §2

[10] = system: A. baumannii clinical isolate NY F
Excerpt: as §1, §2

[11] = system: A. baumannii clinical isolate NY C
Excerpt: as §1, §2

[12] = system: A. baumannii clinical isolate LAC 03
Excerpt: as §1, §2

[13] = system: A. baumannii clinical isolate LAC 09
Excerpt: as §1, §2

[14] = system: A. baumannii clinical isolate LAC 02
Excerpt: as §1, §2

[15] = system: A. baumannii clinical isolate LAC 08
Excerpt: as §1, §2

[16] = system: A. baumannii clinical isolate LAC 14
Excerpt: as §1, §2

[17] = system: A. baumannii clinical isolate LAC 17
Excerpt: as §1, §2

[18] = system: A. baumannii clinical isolate LAC 20
Excerpt: as §1, §2

[19] = system: A. baumannii reference strain AYE
Excerpt: as §1, §2

[20] = system: A. baumannii reference strain SDF
Excerpt: as §1, §2

[21] = system: A. baumannii clinical isolate LAC 18
Excerpt: as §1, §2

[22] = system: A. baumannii reference strain 17978; conditions: strain 17978 (ATCC)
Excerpt: as §1, §2

[23] = system: A. baumannii clinical isolate NY D
Excerpt: as §1, §2

[24] = system: A. baumannii clinical isolate LAC 15
Excerpt: as §1, §2

[25] = system: A. baumannii clinical isolate LAC 16
Excerpt: as §1, §2

[26] = system: A. baumannii clinical isolate LAC 07
Excerpt: as §1, §2

[27] = system: A. baumannii clinical isolate LAC 04
Excerpt: as §1, §2

[28] = system: A. baumannii clinical isolate LAC 13
Excerpt: as §1, §2

[29] = system: A. baumannii clinical isolate NY B
Excerpt: as §1, §2

[30] = system: A. baumannii clinical isolate LAC 06
Excerpt: as §1, §2

[31] = system: A. baumannii clinical isolate NY H
Excerpt: as §1, §2

[32] = system: A. baumannii clinical isolate LAC 12
Excerpt: as §1, §2

[33] = system: A. baumannii clinical isolate LAC 05
Excerpt: as §1, §2

| Molecule | Antibiotic susceptibility [1] | Antibiotic susceptibility [2] | Antibiotic susceptibility [3] | Antibiotic susceptibility [4] | Antibiotic susceptibility [5] | Antibiotic susceptibility [6] | Antibiotic susceptibility [7] | Antibiotic susceptibility [8] | Antibiotic susceptibility [9] | Antibiotic susceptibility [11] | Antibiotic susceptibility [12] | Antibiotic susceptibility [13] | Antibiotic susceptibility [14] | Antibiotic susceptibility [15] | Antibiotic susceptibility [16] | Antibiotic susceptibility [17] | Antibiotic susceptibility [18] | Antibiotic susceptibility [19] | Antibiotic susceptibility [20] | Antibiotic susceptibility [21] | other results |
| --- | --- | --- | --- | --- | --- | --- | --- | --- | --- | --- | --- | --- | --- | --- | --- | --- | --- | --- | --- | --- | --- |
| Gentamicin | R | S | R | R | R | R | R | R | R | R | R | R | I | R | R | R | R | R | S | R | Antibiotic susceptibility [10]: R; Antibiotic susceptibility [22]: S; Antibiotic susceptibility [23]: R; Antibiotic susceptibility [24]: I; Antibiotic susceptibility [25]: R; Antibiotic susceptibility [26]: R; Antibiotic susceptibility [27]: R; Antibiotic susceptibility [28]: I; Antibiotic susceptibility [29]: R; Antibiotic susceptibility [30]: R; Antibiotic susceptibility [31]: R; Antibiotic susceptibility [32]: R; Antibiotic susceptibility [33]: R |
| CO/N=C(\C(=O)N[C@@H]1C(=O)N2C(C(=O)[O-])=C(C[N+]3(C)CCCC3)CS[C@H]12)c1csc(N)n1 [FEP, Cefepime] | R | R | R | I | I | R | R | R | I | R | R | R | R | I | R | R | R | R | I | R | Antibiotic susceptibility [10]: R; Antibiotic susceptibility [22]: S; Antibiotic susceptibility [23]: R; Antibiotic susceptibility [24]: R; Antibiotic susceptibility [25]: R; Antibiotic susceptibility [26]: R; Antibiotic susceptibility [27]: I; Antibiotic susceptibility [28]: R; Antibiotic susceptibility [29]: R; Antibiotic susceptibility [30]: S; Antibiotic susceptibility [31]: R; Antibiotic susceptibility [32]: R; Antibiotic susceptibility [33]: I |
| CN(C)c1ccc(O)c2c1C[C@H]1C[C@H]3[C@H](N(C)C)C(O)=C(C(N)=O)C(=O)[C@@]3(O)C(O)=C1C2=O [MIN, Minocycline] | R | S | S | S | S | S | I | S | S | S | S | S | S | S | R | S | S | S | S | S | Antibiotic susceptibility [22]: S; Antibiotic susceptibility [23]: S; Antibiotic susceptibility [24]: S; Antibiotic susceptibility [25]: S; Antibiotic susceptibility [26]: S; Antibiotic susceptibility [27]: S; Antibiotic susceptibility [28]: R; Antibiotic susceptibility [29]: R; Antibiotic susceptibility [30]: S; Antibiotic susceptibility [31]: S; Antibiotic susceptibility [32]: R; Antibiotic susceptibility [33]: S |
| C[C@H]1COc2c(N3CCN(C)CC3)c(F)cc3c(=O)c(C(=O)O)cn1c23 [LVX, Levofloxacin] | R | R | I | R | S | I | R | R | I | R | R | R | I | R | R | R | R | I | S | R | Antibiotic susceptibility [22]: S; Antibiotic susceptibility [23]: R; Antibiotic susceptibility [24]: R; Antibiotic susceptibility [25]: R; Antibiotic susceptibility [26]: R; Antibiotic susceptibility [27]: S; Antibiotic susceptibility [28]: R; Antibiotic susceptibility [29]: R; Antibiotic susceptibility [30]: S; Antibiotic susceptibility [31]: I; Antibiotic susceptibility [32]: R; Antibiotic susceptibility [33]: R |
